From patent publication US12595239B2, “Substituted isoxazoline derivatives” (BASF SE, priority 2021, dated 2026)

Tests used:
Type in all cases: in vivo
[1] = system: Plutella xylostella; test: B.6 Diamond Back Moth, cabbage leaf disc dip test; details: foliar, 3rd instar larvae, 72 hours after treatment, read-out: mortality in comparison with untreated controls
Description: The active compound was dissolved at the desired concentration in a mixture of 1:1 (vol:vol) distilled water:acetone. Surfactant (Kinetic) was added at a rate of 0.01% (vol/vol). The test solution was prepared at the day of use. Cabbage leaf discs (60 mm in diameter) were dipped in test solution and air-dried. Treated leaves were placed in petri dishes lined with moistened filter paper and inoculated with ten 3rd instar larvae. Mortality was recorded 72 hours after treatment. Feeding damages were also recorded using a scale of 0-100%.

[2] = system: Aedes aegypti; test: whole plant or invertebrate; details: 48 h, larval mortality, 2 days, read-out: mortality in comparison with untreated controls
Description: For evaluating control of Yellow Fever Mosquito, the test unit consisted of 96-well-microtiter plates containing 200 μl of tap water per well and 5-15 freshly hatched A. aegypti larvae. The active compounds were formulated using a solution containing 75% (v/v) water and 25% (v/v) DMSO. Different concentrations of formulated compounds or mixtures were sprayed onto the insect diet at 2.5 μl, using a custom-built micro atomizer, at two replications.
After application, microtiter plates were incubated at 28±1° C., 80±5% RH for 2 days. Larval mortality was then visually assessed.

[3] = system: Dichromothrips corbetti; test: B.7 Orchid Thrips, floral-immersion test; details: adult thrips, 72 hours after treatment, read-out: mortality in comparison with untreated controls
Description: Dichromothrips corbetti adults used for bioassay were obtained from a colony maintained continuously under laboratory conditions. For testing purposes, the test compound was diluted in a 1:1 mixture of acetone:water (vol:vol), plus Kinetic at a rate of 0.01% v/v.
Thrips potency of each compound was evaluated by using a floral-immersion technique. Each orchid petal was dipped into treatment solution and allowed to dry in Petri dishes. Treated petals were placed into individual re-sealable plastic along with about 20 adult thrips. All test arenas were held under dark condition and a temperature of about 28° C. for duration of the assay. The percent mortality was recorded 72 hours after treatment.

[4] = system: Nezara viridula; test: B.8 Green Soldier Stink Bug, soybean pod spray test; details: 120 h, late 3rd instar, after 5 days, read-out: mortality in comparison with untreated controls
Description: The active compound was dissolved at the desired concentration in a mixture of 1:1 (vol:vol) distilled water:aceteone. Surfactant (Kinetic) was added at a rate of 0.01% (vol/vol). The test solution was prepared at the day of use. Soybean pods were placed in 90×50 mm glass Petri dishes lined with moistened filter paper and inoculated with ten late 3rd instar N. viridula. Using a hand atomizer, an approximately 2 ml solution was sprayed into each Petri dish. Treated setup was kept at about 25-26° C. and relative humidity of about 65-70%. Percent mortality was recorded after 5 days.

[5] = system: Anthonomus grandis; test: B.1 Boll weevil (Anthonomus grandis), 96-well microtiter plate diet test; details: 120 h, egg and larval mortality, 5 days, read-out: mortality in comparison with untreated controls
Description: For evaluating control of boll weevil, the test unit consisted of 96-well-microtiter plates containing an insect diet and 5-10 A. grandis eggs.
The compounds were formulated using a solution containing 75% v/v water and 25% v/v DMSO. Different concentrations of formulated compounds were sprayed onto the insect diet at 5 μl, using a custom-built micro atomizer, at two replications.
After application, microtiter plates were incubated at about 25±1° C. and about 75±5% relative humidity for 5 days. Egg and larval mortality were then visually assessed.

[6] = system: Myzus persicae; test: B.3 Green Peach Aphid (mixed life stages), systemic artificial diet test; details: 72 h, treated aphid diet, 3 days, read-out: mortality in comparison with untreated controls
Description: For evaluating control of Green Peach Aphid through systemic means the test unit consisted of 96-well-microtiter plates containing liquid artificial diet under an artificial membrane. The compounds were formulated using a solution containing 75% v/v water and 25% v/v DMSO. Different concentrations of formulated compounds were pipetted into the aphid diet, using a custom-built pipette, at two replications. After application, 5-8 adult aphids were placed on the artificial membrane inside the microtiter plate wells. The aphids were then allowed to suck on the treated aphid diet and incubated at about 23±1° C. and about 50±5% relative humidity for 3 days. Aphid mortality and fecundity was then visually assessed.

[7] = system: Bemisia argentifolii; test: B.12 Silverleaf Whitefly (adults), cotton plant spray test; details: 72 h, 3 days after treatment, read-out: mortality in comparison with untreated controls
Description: The active compounds were formulated by a Tecan liquid handler in 100% cyclohexanone as a 10,000-ppm solution supplied in tubes. The 10,000-ppm solution was serially diluted in 100% cyclohexanone to make interim solutions. These served as stock solutions for which final dilutions were made by the Tecan in 50% acetone:50% water (v/v) into 5 or 10 ml glass vials. A nonionic surfactant (Kinetic®) was included in the solution at a volume of 0.01% (v/v). The vials were then inserted into an automated electrostatic sprayer equipped with an atomizing nozzle for application to plants/insects. Cotton plants at the cotyledon stage (one plant per pot) were sprayed by an automated electrostatic plant sprayer equipped with an atomizing spray nozzle. The plants were dried in the sprayer fume hood and then removed from the sprayer. Each pot was placed into a plastic cup and about 10 to 12 whitefly adults (approximately 3-5 days old) were introduced. The insects were collected using an aspirator and a nontoxic Tygon® tubing connected to a barrier pipette tip. The tip, containing the collected insects, was then gently inserted into the soil containing the treated plant, allowing insects to crawl out of the tip to reach the foliage for feeding. Cups were covered with a reusable screened lid. Test plants were maintained in a growth room at about 25° C. and about 20-40% relative humidity for 3 days, avoiding direct exposure to fluorescent light (14:10 light:dark photoperiod) to prevent trapping of heat inside the cup. Mortality was assessed 3 days after treatment, compared to untreated control plants.

[8] = system: Nephotettix virescens; test: B.9 Rice Green Leafhopper, rice seedling spray test; details: adults, after 72 hours, read-out: mortality in comparison with untreated controls
Description: Four to five-week old rice seedlings with cut upper leaf portion were cleaned and washed 24 hours before spraying. The active compounds were formulated in 1:1 acetone:water (vol:vol), and 0.01% vol/vol surfactant (Kinetic) was added. Potted rice seedlings were sprayed with 5-6 ml test solution, air dried, covered with Mylar cages and inoculated with 10 adults. Treated rice plants were kept at about 28-29° C. and relative humidity of about 50-60%. Percent mortality was recorded after 72 hours.

[9] = system: Tetranychus kanzawai; test: B.10 Red Spider Mite, cowpea bean spray test; details: 72 hours after treatment, read-out: mortality in comparison with untreated controls
Description: The active compound was dissolved at the desired concentration in a mixture of 1:1 (vol:vol) distilled water:acetone. Add surfactant (Kinetic) was added at a rate of 0.01% (vol/vol). The test solution was prepared at the day of use. Potted cowpea beans of 4-5 days of age were cleaned with tap water and sprayed with I-2 ml of the test solution using air driven DeVilbiss® hand atomizer at 20-30 psi (≈1,38 to 2,07 bar). The treated plants were allowed to air dry and afterwards inoculated with 30 or more mites by clipping a cassava leaf section from rearing population. Treated plants were placed inside a holding room at about 25-26° C. and about 65-70% relative humidity. Percent mortality was assessed 72 hours after treatment.

O=C(Nc1ncc(F)cc1F)c1cc(OC2=NOC(c3cc(Cl)c(F)c(Cl)c3)(C(F)(F)F)C2)ccc1Cl (stereo not drawn) [II-8, 2-chloro-5-[[5-(3,5-dichloro-4-fluoro-phenyl)-5-(trifluoromethyl)-4H-isoxazol-3-yl]oxy]-N-(3,5-difluoro-2-pyridyl)benzamide]
≥ 75%: mortality at 300 ppm [1] | mortality at 2500 ppm [2] | mortality at 300 ppm [3] | mortality at 300 ppm [4] | mortality at 2500 ppm [5] | mortality at 2500 ppm [6] | mortality at 300 ppm [7] | mortality at 300 ppm [8] | mortality at 300 ppm [9]
